From patent US20260167620A1, “MULTIFUNCTIONAL COMPOUND CAPABLE OF DEGRADING BTK KINASE, AND COMPOSITION AND USE” (HANGZHOU HEALZEN THERAPEUTICS CO., LTD., priority 2021, published 2026)

Assays:
Assay type in all cases: cell-based
Mino cells = test: Inhibitory activity on Mino cell proliferation (MTS); conditions: Homo sapiens, 72 h or 168 h
Description: (§1) The anti-tumor efficacy of the compounds was tested by measuring their inhibitory effects on OCI-LY10 and Mino cell proliferation. OCI-LY10 and Mino cells were cultured in RPM-1640 medium containing […] fetal calf serum. OCI-LY10 and Mino cells were digested, inoculated in a 96-well plate at a cell concentration of 10000 cells/well, and incubated overnight at 37° C., 5% CO2. Compounds of different concentrations (1000 nM, 4-fold dilution, 8 points) were added to the 96-well plate and incubated for 72 h or 168 h at 37° C. and […], and then 20 μL of MTS was added to each well. After incubation for 2 h, 25 μl of 10% SDS was added to each well to terminate the reaction. The absorbance at 490 nm and 650 nm were measured with a microplate reader. IC50 was calculated using GraphPad Prism 5.0.

BTK = biological target: T1, BTK (Homo sapiens, UniProt Q06187); test: BTK degradation activity test in Mino cells (Westernblot or Elisa); conditions: 24-72 h incubation
T1 construct: endogenous in cells; host or cells: Mino cells
T1 sequence (Q06187 whole entry): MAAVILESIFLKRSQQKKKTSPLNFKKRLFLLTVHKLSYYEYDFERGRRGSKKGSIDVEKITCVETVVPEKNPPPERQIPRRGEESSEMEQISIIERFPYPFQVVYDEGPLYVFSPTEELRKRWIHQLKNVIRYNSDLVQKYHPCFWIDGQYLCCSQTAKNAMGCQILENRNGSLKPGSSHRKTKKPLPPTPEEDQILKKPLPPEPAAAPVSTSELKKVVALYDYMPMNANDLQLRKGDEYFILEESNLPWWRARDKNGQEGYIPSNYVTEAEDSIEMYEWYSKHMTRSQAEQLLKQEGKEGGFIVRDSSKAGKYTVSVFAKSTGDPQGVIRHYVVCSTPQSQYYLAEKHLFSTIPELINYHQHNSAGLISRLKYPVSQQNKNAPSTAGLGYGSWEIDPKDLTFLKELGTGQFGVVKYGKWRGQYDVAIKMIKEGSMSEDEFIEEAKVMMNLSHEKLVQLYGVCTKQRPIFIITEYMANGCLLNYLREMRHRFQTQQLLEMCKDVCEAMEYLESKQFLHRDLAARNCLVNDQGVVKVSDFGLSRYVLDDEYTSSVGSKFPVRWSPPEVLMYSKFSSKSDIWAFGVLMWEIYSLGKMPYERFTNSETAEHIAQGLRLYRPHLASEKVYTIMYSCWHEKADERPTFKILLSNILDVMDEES
Description: The Mino cell line cells are 0.5˜1 million/well in 6-well plates. The compounds are diluted to different concentrations, added to the plate, and after 24-72 h of incubation, the cells are collected. After the cells were lysed, the total protein concentration in each well was determined with a BCA kit. The amount of BTK is determined using the Westernblot or Elisa method.

OCI-LY10 cells = test: Inhibitory activity on OCI-LY10 cell proliferation (MTS); conditions: Homo sapiens, 72 h or 168 h
Description: as §1

SMILES | DC50 (BTK) [nM] | IC50 (OCI-LY10 cells) [nM] | IC50 (Mino cells) [nM]
Cn1c(=O)n(C2CCC(=O)NC2=O)c2ccc(N3CCC(CN4CCC(c5ccc(Nc6nc(N7CCCCC7)nnc6C(N)=O)cc5)CC4)C3)cc21 (centres unmarked) [Compound 011, 5-((4-(1-((1-(1-(2,6-dioxopiperidin-3-yl)-3-methyl-2-oxo-2,3-dihydro-1H-benzo[d]imidazol-5-yl)pyrrolidin-3-yl)methyl)piperidin-4-yl)phenyl)amino)-3-(piperidin-1-yl)-1,2,4-triazine-6-carboxamide] | < 10 |  | 4.2
NC(=O)c1nnc(N2CCCCC2)nc1Nc1ccc(C2CCN(CC3CCN(c4ccc5c(=O)n(C6CCC(=O)NC6=O)ccc5c4)C3)CC2)cc1 (centres unmarked) [Compound 012, 5-((4-(1-((1-(2-(2,6-dioxopiperidin-3-yl)-1-oxo-1,2-dihydroisoquinolin-6-yl)pyrrolidin-3-yl)methyl)piperidin-4-yl)phenyl)amino)-3-(piperidin-1-yl)-1,2,4-triazine-6-carboxamide] | < 10 |  | 1.22
NC(=O)c1nnc(N2CCCCC2)nc1Nc1ccc(C2CCN(CC3CCN(c4ccc5c(c4)CCN(C4CCC(=O)NC4=O)C5=O)C3)CC2)cc1 (centres unmarked) [Compound 013, 5-((4-(1-((1-(2-(2,6-dioxopiperidin-3-yl)-1-oxo-1,2,3,4-tetrahydroisoquinolin-6-yl)pyrrolidin-3-yl)methyl)piperidin-4-yl)phenyl)amino)-3-(piperidin-1-yl)-1,2,4-triazine-6-carboxamide] | < 10 |  | 3.37
NC(=O)c1cnc(N2CCCCC2)nc1Nc1ccc(C2CCN(CC3CCN(c4ccc5c(c4)C(=O)N(C4CCC(=O)NC4=O)C5=O)C3)CC2)cc1 (centres unmarked) [Compound 033, 4-((4-(1-((1-(2-(2,6-dioxopiperidin-3-yl)-1,3-dioxoisoindolin-5-yl)pyrrolidin-3-yl)methyl)piperidin-4-yl)phenyl)amino)-2-(piperidin-1-yl) pyrimidine-5-carboxamide] | < 10 |  | 9.1
NC(=O)c1nnc(N2CCCCC2)nc1Nc1ccc(N2CCC(CN3CCN(c4ccc(N5CCC(=O)NC5=O)cc4)CC3)CC2)nc1 [Compound 048, 5-((6-(4-((4-(4-(2,4-dioxotetrahydropyrimidin-1(2H)-yl)phenyl)piperazin-1-yl)methyl)piperidin-1-yl)pyridin-3-yl)amino)-3-(piperidin-1-yl)-1,2,4-triazine-6-carboxamide] | < 10 | 0.61 | 
NC(=O)c1nnc(N2CCCCC2)nc1Nc1ccc(N2CCC(CN3CCN(c4ccc(N5CCC(=O)NC5=O)cc4)CC3)CC2)c(F)c1 [Compound 050, 5-((4-(4-((4-(4-(2,4-dioxotetrahydropyrimidin-1(2H)-yl)phenyl)piperazin-1-yl)methyl)piperidin-1-yl)-3-fluorophenyl)amino)-3-(piperidin-1-yl)-1,2,4-triazine-6-carboxamide] | < 10 |  | 6.05
NC(=O)c1nnc(N2CCCCC2)nc1Nc1ccc(N2CCC(CN3CCN(c4ccc(C5CCC(=O)NC5=O)cn4)CC3)CC2)c(F)c1 (centres unmarked) [Compound 053, 5-((4-(4-((4-(5-(2,6-dioxopiperidin-3-yl)pyridin-2-yl)piperazin-1-yl)methyl)piperidin-1-yl)-3-fluorophenyl)amino)-3-(piperidin-1-yl)-1,2,4-triazine-6-carboxamide] | < 10 | 1.73 | 
Cc1cc(N2CCN(CC3CCN(c4ccc(Nc5nc(N6CCCCC6)nnc5C(N)=O)cc4F)CC3)CC2)ccc1N1CCC(=O)NC1=O [Compound 076, 5-((4-(4-((4-(4-(2,4-dioxotetrahydropyrimidin-1(2H)-yl)-3-methylphenyl)piperazin-1-yl)methyl)piperidin-1-yl)-3-fluorophenyl)amino)-3-(piperidin-1-yl)-1,2,4-triazine-6-carboxamide] | < 10 | 1.09 | 
NC(=O)c1nnc(N2CCCCC2)nc1Nc1ccc(N2CCN(CC3CCN(c4ccc(N5CCC(=O)NC5=O)c(F)c4)CC3)CC2)c(F)c1 [Compound 078, 5-((4-(4-((1-(4-(2,4-dioxotetrahydropyrimidin-1(2H)-yl)-3-fluorophenyl)piperidin-4-yl)methyl)piperazin-1-yl)-3-fluorophenyl)amino)-3-(piperidin-1-yl)-1,2,4-triazine-6-carboxamide] | < 10 | 0.7 | 
NC(=O)c1nnc(N2CCCCC2)nc1Nc1ccc(N2CCN(CC3CCN(c4ccc(C(=O)NC5CCC(=O)NC5=O)c(F)c4)CC3)CC2)c(F)c1 (centres unmarked) [Compound 083, 5-((4-(4-((1-(4-((2,6-dioxopiperidin-3-yl)carbamoyl)-3-fluorophenyl)piperidin-4-yl)methyl)piperazin-1-yl)-3-fluorophenyl)amino)-3-(piperidin-1-yl)-1,2,4-triazine-6-carboxamide] | < 10 | 1.24 | 
Cc1cc(N2CCC(=O)NC2=O)ccc1N1CCC(CN2CCN(c3ccc(Nc4nc(N5CCCCC5)nnc4C(N)=O)cc3F)CC2)CC1 [Compound 084, 5-((4-(4-((1-(4-(2,4-dioxotetrahydropyrimidin-1(2H)-yl)-2-methylphenyl)piperidin-4-yl)methyl)piperazin-1-yl)-3-fluorophenyl)amino)-3-(piperidin-1-yl)-1,2,4-triazine-6-carboxamide] | < 10 |  | 3.3

Second part, led by results:

DC50 (BTK) [nM] | IC50 (OCI-LY10 cells) [nM] | SMILES | IC50 (Mino cells) [nM]
< 10 | 0.7 | NC(=O)c1nnc(N2CCCCC2)nc1Nc1ccc(N2CCN(CC3CCN(c4ccc(N5CCC(=O)NC5=O)cc4F)CC3)CC2)c(F)c1 [Compound 086, 5-((4-(4-((1-(4-(2,4-dioxotetrahydropyrimidin-1(2H)-yl)-2-fluorophenyl)piperidin-4-yl)methyl)piperazin-1-yl)-3-fluorophenyl)amino)-3-(piperidin-1-yl)-1,2,4-triazine-6-carboxamide] | 
< 10 |  | NC(=O)c1nnc(N2CCCCC2)nc1Nc1ccc(N2CCN(CC3CCN(c4ccc(-c5ccc(=O)[nH]n5)cc4C(F)(F)F)CC3)CC2)c(F)c1 [Compound 087, 5-((3-fluoro-4-(4-((1-(4-(6-oxo-1,6-dihydropyridazin-3-yl)-2-(trifluoromethyl)phenyl)piperidin-4-yl)methyl)piperazin-1-yl)phenyl)amino)-3-(piperidin-1-yl)-1,2,4-triazine-6-carboxamide] | 4.31
< 10 | 0.66 | NC(=O)c1nnc(N2CCCCC2)nc1Nc1ccc(N2CCN(CC3CCN(c4ccc(NC5CCC(=O)NC5=O)c(F)c4)CC3)CC2)c(F)c1 (centres unmarked) [Compound 088, 5-((4-(4-((1-(4-((2,6-dioxopiperidin-3-yl)amino)-3-fluorophenyl)piperidin-4-yl)methyl)piperazin-1-yl)-3-fluorophenyl)amino)-3-(piperidin-1-yl)-1,2,4-triazine-6-carboxamide] | 
< 10 |  | Cc1cc(N2CCC(CN3CCN(c4ccc(Nc5nc(N6CCOCC6)nnc5C(N)=O)cc4F)CC3)CC2)ccc1N1CCC(=O)NC1=O [Compound 098, 5-((4-(4-((1-(4-(2,4-dioxotetrahydropyrimidin-1(2H)-yl)-3-methylphenyl)piperidin-4-yl)methyl)piperazin-1-yl)-3-fluorophenyl)amino)-3-morpholino-1,2,4-triazine-6-carboxamide] | 3.11
< 10 |  | NC(=O)c1nnc(N2CCOCC2)nc1Nc1ccc(N2CCN(CC3CCN(c4ccc(N5CCC(=O)NC5=O)cc4)CC3)CC2)c(F)c1 [Compound 099, 5-((4-(4-((1-(4-(2,4-dioxotetrahydropyrimidin-1(2H)-yl)phenyl)piperidin-4-yl)methyl)piperazin-1-yl)-3-fluorophenyl)amino)-3-morpholino-1,2,4-triazine-6-carboxamide] | 
< 10 |  | NC(=O)c1nnc(N2CCOCC2)nc1Nc1ccc(N2CCN(CC3CCN(c4ccc(C(=O)NC5CCC(=O)NC5=O)c(F)c4)CC3)CC2)c(F)c1 (centres unmarked) [Compound 101, 5-((4-(4-((1-(4-((2,6-dioxopiperidin-3-yl)carbamoyl)-3-fluorophenyl)piperidin-4-yl)methyl)piperazin-1-yl)-3-fluorophenyl)amino)-3-morpholino-1,2,4-triazine-6-carboxamide] | 
< 10 |  | NC(=O)c1nnc(N2CCOCC2)nc1Nc1ccc(N2CCN(CC3CCN(c4ncc(-c5ccc(=O)[nH]n5)cc4C(F)(F)F)CC3)CC2)c(F)c1 [Compound 102, 5-((3-fluoro-4-(4-((1-(5-(6-oxo-1,6-dihydropyridazin-3-yl)-3-(trifluoromethyl)pyridin-2-yl)piperidin-4-yl)methyl)piperazin-1-yl)phenyl)amino)-3-morpholino-1,2,4-triazine-6-carboxamide] | 
< 10 |  | NC(=O)c1nnc(N2CCOCC2)nc1Nc1ccc(N2CCN(CC3CCN(c4ccc(-c5ccc(=O)[nH]n5)cc4C(F)(F)F)CC3)CC2)c(F)c1 [Compound 103, 5-((3-fluoro-4-(4-((1-(4-(6-oxo-1,6-dihydropyridazin-3-yl)-2-(trifluoromethyl)phenyl)piperidin-4-yl)methyl)piperazin-1-yl)phenyl)amino)-3-morpholino-1,2,4-triazine-6-carboxamide] | 
< 10 |  | NC(=O)c1nnc(N2CCOCC2)nc1Nc1ccc(N2CCN(CC3CCN(c4ccc(NC5CCC(=O)NC5=O)nc4)CC3)CC2)c(F)c1 (centres unmarked) [Compound 104, 5-((4-(4-((1-(6-((2,6-dioxopiperidin-3-yl)amino)pyridin-3-yl)piperidin-4-yl)methyl)piperazin-1-yl)-3-fluorophenyl)amino)-3-morpholino-1,2,4-triazine-6-carboxamide] | 
